Data as given in patent US20090176817A1, “Method of Treatment of Diarrhea-Predominant Irritable Bowel Syndrome in a Subject” (priority 2005, published 2009).

Test system: diarrhea-predominant IBS subjects
Assay: Study S241.3.006: interruption of activities assessment
Type: in vivo, human
Conditions: for Percentage of Subjects Who Worsened from Baseline: Interruption of Activities: S241.3.006, 2 mg TID, observed value
Source text: Studies S24 1.3.OO6, S24 1.3.0 1 1, and S24 1.3.009 used the following efficacy measurements: • The subjects answered the following three questions with “yes” or “no” using a phone diary at the end of each week: • a) During the last week, did you experience adequate relief of your IBS symptoms, such as abdominal pain, abdominal discomfort, abnormal bowel habits? • b) During the last week, did you experience adequate relief of your abdominal pain and/or discomfort? • c) During the last week, did you experience adequate relief of your abnormal bowel habits? • The subjects rated the following symptoms using the phone diary at the end of each day: • abdominal pain/discomfort (five-point scale); • stool consistency (seven-point Bristol Stool Scale); • stool frequency (number of bowel movements each day); • urgency (five-point scale); • straining (yes or no); • feeling of incomplete defecation (yes or no); • bloating or feeling of abdominal distension (five-point scale). • In Studies S241 A006 and S241.3.009, subjects completed the IBS-QOL Survey at Baseline (Day 1) and at the end of treatment. In Study S24 1.3.0 1 1, subjects completed the IBS-QOL Survey at Baseline (Day 1), at the end of the three-month treatment period, and at the end of rerandomized treatment.
Other secondary efficacy parameters for all three studies included: • Responder rate for the weekly diary questions on adequate relief at each month, where a responder for a month (monthly responder) was defined as a subject who answered the weekly question with “yes” at least twice for that month. The responder rate was the percentage of responders within a treatment group. The all-month responder rate for the weekly diary questions on adequate relief was also evaluated, where an all-month responder was defined as a subject who answered the weekly question with “yes” at least twice for each month. The all-month responder rate was the percentage of all-month responders within a treatment group; • Adequate relief rate for the weekly diary questions was calculated for each subject as the number of weekly assessments with adequate relief (“yes”) divided by the total number of weekly assessments; • Percentage of subjects with adequate relief for the weekly diary questions at each week; • Daily diary questions regarding abdominal pain/discomfort (five-point scale), stool consistency (seven-point scale), stool frequency (number of bowel movements each day), straining (yes or no), urgency (five-point scale), feeling of incomplete evacuation (yes or no), and bloating or feeling of abdominal distention (five-point scale); • QOL data assessed by the IBS-QOL questionnaire; and • Question to determine the interruption of activities.

## Cc1nccn1C[C@H]1CCc2c(c3cccc4c3n2CCC4)C1=O [Cilansetron, (R)-(−)-4,5,6,8,9,10-hexahydro-10-[(2-methyl-1H-imidazol-1-yl)methyl]-11H-pyrido-[3,2,1-jk]-carbazol-11-one]
Endpoint
  Subjects “not at all or rarely” bothered by IBS symptoms: 42%
Month 1
  Subjects worsened from Baseline, interruption of activities: 8%
  Percentage of Subjects Who Worsened from Baseline: Interruption of Activities: 8%
Month 2
  Percentage of Subjects Who Worsened from Baseline: Interruption of Activities: 5%
Month 3
  Percentage of Subjects Who Worsened from Baseline: Interruption of Activities: 4%
